Our source for the melting point values is patent US6384051B1, “Method of treating or inhibiting colonic polyps” (American Cyanamid Company, priority 2000, dated 2002).

Usually melting point stands for the temperature, or range, at which the solid turns liquid. Take `COc1cc2ncc(C#N)c(Nc3ccc(O)cc3Cl)c2cc1OC` [Example 296, 4-(2-Chloro-4-hydroxy-phenylamino)-6,7-dimethoxy-quinoline-3-carbonitrile]: the melting point is > 250 °C. For the molecule `CN(C)CC#CC(=O)Nc1ccc2ncc(C#N)c(Nc3ccc(F)c(Cl)c3)c2c1` [Example 193, N-[4-[(3-Chloro-4-fluorophenyl)amino]-3-cyano-6-quinolinyl]-4-dimethylamino-2-butynamide], the melting point is 225 °C (dec.). For `COc1cccc2c(Nc3ccc(Cl)cc3F)c(C#N)cnc12` [Example 275, 4-(4-Chloro-2-fluoro-phenylamino)-8-methoxy-quinoline-3-carbonitrile], the melting point was 127 °C (dec.). On to `COc1cc2ncc(C#N)c(Nc3cc(Cl)ccc3O)c2cc1OC` [Example 290, 4-(5-Chloro-2-hydroxy-phenylamino)-6,7-dimethoxy-quinoline-3-carbonitrile], for which the melting point is > 250 °C. Turning to `COc1cc2ncc(C#N)c(Nc3cccc(C(=O)O)c3C)c2cc1OC` [Example 368, 3-(3-Cyano-6,7-dimethoxy-quinolin-4-ylamino) -2-methyl-benzoic acid], the melting point was 242 to 245 °C. The result for `COCC#CC(=O)Nc1ccc2ncc(C#N)c(Nc3ccc(F)c(Cl)c3)c2c1` [Example 194, N-[4-[-(3-Chloro-4-fluorophenyl)amino]-3-cyano-6-quinolinyl]-4-methoxy-2-butynamide] reads 170 to 171 °C; that for `CCc1ccc(Nc2c(C#N)cnc3cc(OC)c(OC)cc23)cc1` [Example 335, 4-(4-Ethylphenylamino)-6,7-dimethoxyquinoline-3-carbonitrile], 248 to 250 °C; that for `COc1cc2c(Nc3cc(O)c(Cl)cc3F)c(C#N)cnc2c(OC)c1OC` [Example 244, 4-(4-Chloro-2-fluoro-5-hydroxy-phenylamino)-6,7,8-trimethoxy-quinoline-3-carbonitrile], 223 to 225 °C. `COc1cc2c(Nc3cccc(N(C)C)c3)c(C#N)cnc2c(OC)c1OC` [Example 232, 4-(3-Dimethylamino-phenylamino)-6,7,8-trimethoxy-quinoline-3-carbonitrile] had a melting point of 142 to 144 °C. As for `N#Cc1cnc2ccc(NC(=O)C#CCO)cc2c1Nc1cccc(Br)c1` [Example 57, N-[4-[(3-Bromophenyl)amino]-3-cyano-6-quinolinyl]-4-hydroxy-2-butynamide], the melting point was 253 to 254 °C (dec.).

On to `CC(C)N(C)CC#CC(=O)Nc1ccc2ncc(C#N)c(Nc3cccc(Br)c3)c2c1` [Example 191, N-[4-[(3-Bromophenyl)amino]-3-cyano-6-quinolinyl]-4-(N-isopropyl-N-methylamino)-2-butynamide], for which the melting point was 124 to 126 °C.

On to `CN(C)CC#CC(=O)Nc1ccc2ncc(C#N)c(Nc3cccc(Br)c3)c2c1` [Example 329, N-[4-[(3-Bromophenyl)amino]-3-cyano-6-quinolinyl]-4-dimethylamino-2-butynamide], for which the melting point is 180 °C (dec.).

`COc1cc2ncc(C#N)c(Nc3ccccc3CCO)c2cc1OC` [Example 301, 4-[2-(2-Hydroxy-ethyl)-phenylamino]-6,7-dimethoxy-quinoline-3-carbonitrile] showed a melting point of 159 to 162 °C. The result for `COc1cc2c(Nc3ccc(C)c(O)c3)c(C#N)cnc2c(OC)c1OC` [Example 233, 4-(3-Hydroxy-4-methyl-phenylamino)-6,7,8-trimethoxy-quinoline-3-carbonitrile] reads 200 °C (dec.). As for `CC(C)N(CC#CC(=O)Nc1ccc2ncc(C#N)c(Nc3cccc(Br)c3)c2c1)C(C)C` [Example 192, N-[4-[(3-Bromophenyl)amino]-3-cyano-6-quinolinyl]-4-diisopropylamino-2-butynamide], the melting point was 130 °C (dec.). In turn, `CN(C)CC#CC(=O)Nc1ccc2ncc(C#N)c(Nc3cccc(Br)c3)c2c1` [Example 59, N-[4-[(3-Bromophenyl)amino]-3-cyano-6-quinolinyl]-4-dimethylamino-2-butynamide] gave a melting point of 114 to 118 °C. With `COc1ccc(OC)c2c(Nc3cccc(N(C)C)c3)c(C#N)cnc12` [Example 242, 4-(3-Dimethylamino-phenylamino)-5,8-dimethoxy-quinoline-3-carbonitrile], the melting point is 103 to 105 °C. For the molecule `COc1cc2ncc(C#N)c(Nc3cccc(CO)c3C)c2cc1OC` [Example 333, 4-(3-Hydroxymethyl-2-methylphenylamino)-6,7-dimethoxyquinoline-3-carbonitrile], the melting point was in the range of 123 to 125 °C.

For `COc1ccc(Nc2c(C#N)cnc3cc(OC)c(OC)cc23)c(C)c1` [Example 367, 6,7-Dimethoxy-4-(4-methoxy-2-methyl-phenylamino)-quinoline-3-carbonitrile], the melting point was > 131 °C (dec.).

With `COc1cc2ncc(C#N)c(Nc3ccc(C)cc3O)c2cc1OC` [Example 287, 4-(2-Hydroxy-4-methyl-phenylamino)-6,7-dimethoxy-quinoline-3-carbonitrile], the melting point is > 250 °C. For `COc1cc2ncc(C#N)c(Nc3cc(Cl)c(O)c(Cl)c3)c2cc1OC` [Example 286, 4-(3,5-Dichloro-4-hydroxy-phenylamino)-6,7-dimethoxy-quinoline-3-carbonitrile], the melting point is > 250 °C. Regarding `COc1ccc2ncc(C#N)c(Nc3ccc(C)c(O)c3)c2c1` [Example 284, 4-(3-Hydroxy-4-methyl-phenylamino)-6-methoxy-quinoline-3-carbonitrile], the melting point is > 250 °C (dec.). Regarding `COc1cc2ncc(C#N)c(Nc3ccc(C)c(Cl)c3)c2cc1OC` [Example 370, 4-(3-Chloro-4-methyl-phenylamino)-6,7-dimethoxy-quinoline-3-carbonitrile], the melting point is > 250 °C. In the case of `COc1cccc2c(Nc3cccc(Br)c3)c(C#N)cnc12` [Example 274, 4-[(3-Bromophenyl)amino]-8-methoxy-3-quinolinecarbonitrile], the melting point was in the range of 210 to 212 °C.

Molecule `COc1ccc(OC)c2c(Nc3cccc(Br)c3)c(C#N)cnc12` [Example 240, 4-(3-Bromo-phenylamino)-5,8-dimethoxy-quinoline-3-carbonitrile] displayed a melting point of 72 to 74 °C. `CCN(CC)CC#CC(=O)Nc1ccc2ncc(C#N)c(Nc3cccc(Br)c3)c2c1` [Example 187, N-[4-[(3-Bromophenyl)amino]-3-cyano-6-quinolinyl]-4-diethylamino-2-butynamide] returned a melting point of 133 to 135 °C. On to `COCC#CC(=O)Nc1ccc2ncc(C#N)c(Nc3cccc(Br)c3)c2c1` [Example 60, N-[4-[(3-Bromophenyl)amino]-3-cyano-6-quinolinyl]-4-methoxy-2-butynamide], for which the melting point was 198 to 202 °C (dec.). In the case of `COc1cc2c(Nc3cccc(Br)c3)c(C#N)cnc2cc1OCCCN1CCOCC1` [Example 313, 4-(3-Bromo-phenylamino)-6-methoxy-7-(3-morpholin-4-yl-propoxy)-quinoline-3-carbonitrile] it was 115 to 118 °C; in that of `COc1cc2ncc(C#N)c(Nc3ccc(F)cc3)c2cc1OC` [Example 46, 4-[(4-Fluorophenyl)amino]-6,7-dimethoxy-3-quinolinecarbonitrile], 282 to 285 °C; in that of `N#Cc1cnc2ccc(NC(=O)C#CCN3CCOCC3)cc2c1Nc1cccc(Br)c1` [Example 58, N-[4-[(3-Bromophenyl)amino]-3-cyano-6-quinolinyl]-4-morpholino-2-butynamide], 112 to 115 °C. On to `COCC#CC(=O)Nc1ccc2ncc(C#N)c(Nc3cccc(Br)c3)c2c1` [Example 330, N-[4-[(3-Bromophenyl)amino]-3-cyano-6-quinolinyl]-4-methoxy-2-butynamide], for which the melting point was 197 °C (dec.).

As to `COc1cc2ncc(C#N)c(Nc3cccc(N(C)C)c3)c2cc1OC` [Example 366, 4-(3-Dimethylamino-phenylamino)-6,7-dimethoxy-quinoline-3-carbonitrile], the melting point lay within 246 to 249 °C.

In turn, `COc1ccc2ncc(C#N)c(Nc3cc(O)c(Cl)cc3F)c2c1` [Example 285, 4-(4-Chloro-2-fluoro-5-hydroxy-phenylamino)-6-methoxy-quinoline3-carbonitrile] yielded a melting point of 228 to 230 °C. `COc1cc2c(Nc3ccccc3SC)c(C#N)cnc2cc1OCCCN1CCOCC1` [Example 314, 6-Methoxy-4-(2-methylsulfanyl-phenylamino)-7-(3-morpholin-4-yl-propoxy)-quinoline-3-carbonitrile] came in with a melting point of 179 to 180 °C.

`COc1cc2c(Nc3ccc(Cl)cc3F)c(C#N)cnc2c(OC)c1OC` [Example 234, 4-(4-Chloro-2-fluoro-phenylamino)-6,7,8-trimethoxy-quinoline-3-carbonitrile] gave a melting point of 166 to 168 °C. Regarding `COc1cc2ncc(C#N)c(Oc3cccc(Br)c3)c2cc1OC` [Example 49, 4-(3-Bromophenoxy)-6,7-dimethoxy-3-quinolinecarbonitrile], the melting point lay in the range of 187 to 190 °C.

`COc1cc2ncc(C#N)c(Nc3cccc(C(F)(F)F)c3)c2cc1OC` [Example 42, 4-[(3-Trifluoromethylphenyl)amino]-6,7-dimethoxy-3-quinolinecarbonitrile] displayed a melting point of 190 to 193 °C.

For the molecule `COc1cccc2c(Nc3c(F)cc(F)cc3F)c(C#N)cnc12` [Example 280, 8-Methoxy-4-(2,4,6-trifluoro-phenylamino)-quinoline-3-carbonitrile], the melting point was 297 °C (dec.). Molecule `COc1cc2ncc(C#N)c(Nc3ccc(C(F)(F)F)cc3)c2cc1OC` [Example 376, 6,7-Dimethoxy-4-(4-trifluoromethyl-phenylamino)-quinoline-3-carbonitrile] yielded a melting point of 116 to 118 °C. `COc1cc2c(Nc3ccc(O)cc3C)c(C#N)cnc2cc1OCCCN1CCOCC1` [Example 312, 4-(4-Hydroxy-2-methyl-phenylamino)-6-methoxy-7-(3-morpholin-4yl-propoxy)-quinoline-3-carbonitrile] yielded a melting point of 120 to 126 °C.
